Reference: US4016167A, “N-Substituted-6,8-dioxamorphinans” (Bristol-Myers Company, priority 1975, dated 1977)
Counter-ions that a name gives are not always drawn.

Legend:
[1] = test system: phenylquinone induced writhings; assay: Phenylquinone writhing, mouse s.c. (agonist activity); type: in vivo; conditions: 50 percent reduction in number of phenylquinone induced writhings, tested as salts, reported as free base; for ED50 Agonist Activity, Phenylquinone Writhing: tartrate; for ED50: Mus musculus, sc
Description: ^1 A 50 percent reduction in number of phenylquinone induced writhings (Siegmund, E.A. et al., Proc. Soc. Biol. & Med. 95, 729; 1957).

[2] = test system: Straub Tail induced by oxymorphone; assay: Antagonism of Straub Tail induced by oxymorphone in mice (antagonist activity); type: in vivo, mouse; conditions: antagonism of Straub Tail induced by oxymorphone (2 mg./kg. s.c.) in 50 percent of mice, reported as free base; for ED50 Antagonist Activity, Oxymorphone Straub Tail: s.c., tartrate; for ED50: Mus musculus, sc
Experimental: ^2 Antagonism of Straub Tail induced by oxymorphone (2 mg./kg. s.c.) in 50 percent of mice.

[3] = test system: agonist or antagonist activity in mice and rats; assay: Agonist and/or antagonist activity in mice and rats, overall assessment of the testing results; type: in vivo; conditions: conclusion from Table I
[4] = test system: analgesic effect induced by morphine; assay: Morphine antagonism, rat tail flick (antagonist activity); conditions: sc, read-out: ED50 Antagonist Activity, Morphine Antagonism Rat Tail Flick
[5] = prior art; cited from earlier work

| SMILES | ED50 Agonist Activity, Phenylquinone Writhing [1] [mg/kg] | ED50 Antagonist Activity, Oxymorphone Straub Tail [2] [mg/kg] | ED50 [1] [mg/kg] | ED50 [2] [mg/kg] | agonist or antagonist activity (in words) [3] | ED50 [4] [mg/kg] | agonist and antagonist properties [5] |
| --- | --- | --- | --- | --- | --- | --- | --- |
| COc1ccc2c(c1)[C@]13CCN(CC4CC4)[C@H](C2)[C@@H]1OC(C)(C)OC3.O=C(O)C(O)C(O)C(=O)O (single isomer, unassigned) [(+)-XIVd, (+)-17-Cyclopropylmethyl-7,7-dimethyl-3-methoxy-6,8-dioxamorphinan-(-)-hydrogen tartrate] | > 40 | > 40 | – | – | – | – | – |
| CC1(C)OCC23CCN(CC4CC4)C(Cc4ccc(O)cc42)C3O1 (single isomer, unassigned) [(+)-XVd, (+)-17,Cyclopropylmethyl-7,7-dimethyl-3-hydroxy-6,8-dioxamorphinan (-) tartrate] | – | – | > 10 | > 40 | – | – | – |
| COc1ccc2c(c1)[C@]13CCN(CC4CC4)[C@H](C2)[C@@H]1OC(C)(C)OC3.O=C(O)C(O)C(O)C(=O)O (single isomer, unassigned) [(-)-XIVd, (- )-17-Cyclopropylmethyl-7,7-dimethyl-3-methoxy-6,8-dioxamorphinan-(+ )-hydrogen tartrate] | 0.066 | 5 | – | – | Outstanding | 1.19 | – |
| CC1(C)OC[C@]23CCN(CC4CC4)[C@H](Cc4ccc(O)cc42)[C@@H]3O1.O=C(O)C(O)C(O)C(=O)O (single isomer, unassigned) [(-)-XVd, (- )-17-Cyclopropylmethyl-7,7-dimethyl-3-hydroxy-6,8-dioxamorphinan (+ ) tartrate] | – | – | 0.005 | 0.09 | Outstanding | 0.032 | – |
| COc1ccc2c(c1)[C@]13CCN(C)[C@H](C2)[C@@H]1OCOC3 [IXa, 3-Methoxy-17-methyl-6,8-dioxamorphinan] | – | – | ~5 | > 20 | – | – | – |
| COc1ccc2c(c1)[C@]13CCN(C)[C@H](C2)[C@]1(C)OCOC3 [IXc, 14β,17-Dimethyl-3-methoxy-6,8-dioxamorphinan] | – | – | 0.31 | > 40 | – | – | – |
| COc1ccc2c(c1)[C@]13CCN(C)[C@H](C2)[C@@H]1OC(C)(C)OC3 [IXd, 3-Methoxy-7,7,17-trimethyl-6,8-dioxamorphinan] | – | – | 0.63 | > 40 | – | – | – |
| COc1ccc2c(c1)[C@]13CCN[C@H](C2)[C@@H]1OCOC3.O=C(O)/C=C/C(=O)O [XIIa, 3-Methoxy-6,8-dioxamorphinan hydrogen fumarate] | – | – | 7.4 | > 20 | – | – | – |
| COc1ccc2c(c1)[C@]13CCN[C@H](C2)[C@]1(C)OCOC3.O=C(O)/C=C/C(=O)O [XIIc, 3-Methoxy-14β-methyl-6,8-dioxamorphinan hydrogen fumarate] | – | – | 2 | ~30 | – | – | – |
| COc1ccc2c(c1)[C@]13CCN(CC4CC4)[C@H](C2)[C@@H]1OCOC3.O=C(O)/C=C/C(=O)O [XIVa, 17-Cyclopropylmethyl-3-methoxy-6,8-dioxamorphinan hydrogen fumarate] | – | – | 0.3 | ~15 | Outstanding | – | – |
| COc1ccc2c(c1)[C@]13CCN(CC4CCC4)[C@H](C2)[C@@H]1OCOC3 [XIVb, 17-Cyclobutylmethyl-3-methoxy-6,8-dioxamorphinan] | – | – | 2 | > 40 | – | – | – |
| COc1ccc2c(c1)[C@]13CCN(CC4CC4)[C@H](C2)[C@]1(C)OCOC3 [XIVc, 17-Cyclopropylmethyl-3-methoxy-14β-methyl-6,8-dioxamorphinan] | – | – | ~5 | > 40 | – | – | – |
| COc1ccc2c(c1)[C@]13CCN(CC4CC4)[C@H](C2)[C@@H]1OC(C)(C)OC3.O=C(O)/C=C/C(=O)O [XIVd, 17-Cyclopropylmethyl-7,7-dimethyl-3-methoxy-6,8-dioxamorphinan hydrogen fumarate] | – | – | 0.29 | ~30 | Outstanding | – | – |
| COc1ccc2c(c1)[C@]13CCN(CC4CCC4)[C@H](C2)[C@@H]1OC(C)(C)OC3.O=C(O)/C=C/C(=O)O [XIVe, 17-Cyclobutylmethyl-7,7-dimethyl-3-methoxy-6,8-dioxamorphinan hydrogen fumarate] | – | – | 6.1 | > 40 | – | – | – |
| Oc1ccc2c(c1)[C@]13CCN(CC4CC4)[C@H](C2)[C@@H]1OCOC3 [XVa, 17-Cyclopropylmethyl-3-hydroxy-6,8-dioxamorphinan] | – | – | 0.02 | 0.3 | Outstanding | 0.12 | – |
| O=C(O)/C=C/C(=O)O.Oc1ccc2c(c1)[C@]13CCN(CC4CCC4)[C@H](C2)[C@@H]1OCOC3 [XVb, 17-Cyclobutylmethyl-3-hydroxy-6,8-dioxamorphinan fumarate] | – | – | 0.14 | ~15 | Outstanding | ~9 | – |
| C[C@@]12OCOC[C@@]13CCN(CC1CC1)[C@@H]2Cc1ccc(O)cc13.O=C(O)/C=C/C(=O)O [XVc, 17-Cyclopropylmethyl-3-hydroxy-14β-methyl-6,8-dioxamorphinan hydrogen fumarate] | – | – | 0.064 | 0.63 | Outstanding | 0.1 | – |
| CC1(C)OC[C@]23CCN(CC4CC4)[C@H](Cc4ccc(O)cc42)[C@@H]3O1.O=C(O)/C=C/C(=O)O [XVd, 17-Cyclopropylmethyl-7,7-dimethyl-3-hydroxy-6,8-dioxamorphinan hydrogen fumarate] | – | – | 0.009 | 0.16 | Outstanding | 0.096 | – |
| CC1(C)OC[C@]23CCN(CC4CCC4)[C@H](Cc4ccc(O)cc42)[C@@H]3O1.O=C(O)/C=C/C(=O)O [XVe, 17-Cyclobutylmethyl-7,7-dimethyl-3-hydroxy-6,8-dioxamorphinan hydrogen fumarate] | – | – | 0.04 | ~15 | Outstanding | – | – |
| CN1CC[C@]23COCO[C@H]2[C@H]1Cc1ccc(O)cc13.O=C(O)/C=C/C(=O)O [Xa, 3-Hydroxy-17-methyl-6,8-dioxamorphinan fumarate] | – | – | 0.3 | > 40 | – | – | – |
| CN1CC[C@]23COCO[C@@]2(C)[C@H]1Cc1ccc(O)cc13.O=C(O)/C=C/C(=O)O [Xc, 14β,17-Dimethyl-3-hydroxy-6,8-dioxamorphinan fumarate] | – | – | 0.04 | ~40 | – | – | – |
| CN1CC[C@]23COC(C)(C)O[C@H]2[C@H]1Cc1ccc(O)cc13 [Xd, 3-Hydroxy-7,7,17-trimethyl-6,8-dioxamorphinan] | – | – | 0.08 | > 40 | – | – | – |
| C[C@H]1[C@H]2Cc3ccc(O)cc3[C@]1(C)CCN2CC1CC1 [cyclazocine] | – | – | – | – | – | – | both properties |
